# “Also recorded” adds a separate entry of the source.
# Legend:
# HDAC6 = molecular target: T1, HDAC6 (Homo sapiens, UniProt Q9UBN7); experiment: Western blotting with anti-acetylated lysine / HDAC6 Abs; format: cell-based; parameters: MM.1S, U266, INA-6, RPMI8226, and RPMI-LR5 MM cell lines constitutively express HDAC6; endogenous in cells; host or cells: MM.1S, RPMI8226 and other MM cell lines; MM patient BMPCs/PBMCs
# T1 sequence (Q9UBN7 1-1215): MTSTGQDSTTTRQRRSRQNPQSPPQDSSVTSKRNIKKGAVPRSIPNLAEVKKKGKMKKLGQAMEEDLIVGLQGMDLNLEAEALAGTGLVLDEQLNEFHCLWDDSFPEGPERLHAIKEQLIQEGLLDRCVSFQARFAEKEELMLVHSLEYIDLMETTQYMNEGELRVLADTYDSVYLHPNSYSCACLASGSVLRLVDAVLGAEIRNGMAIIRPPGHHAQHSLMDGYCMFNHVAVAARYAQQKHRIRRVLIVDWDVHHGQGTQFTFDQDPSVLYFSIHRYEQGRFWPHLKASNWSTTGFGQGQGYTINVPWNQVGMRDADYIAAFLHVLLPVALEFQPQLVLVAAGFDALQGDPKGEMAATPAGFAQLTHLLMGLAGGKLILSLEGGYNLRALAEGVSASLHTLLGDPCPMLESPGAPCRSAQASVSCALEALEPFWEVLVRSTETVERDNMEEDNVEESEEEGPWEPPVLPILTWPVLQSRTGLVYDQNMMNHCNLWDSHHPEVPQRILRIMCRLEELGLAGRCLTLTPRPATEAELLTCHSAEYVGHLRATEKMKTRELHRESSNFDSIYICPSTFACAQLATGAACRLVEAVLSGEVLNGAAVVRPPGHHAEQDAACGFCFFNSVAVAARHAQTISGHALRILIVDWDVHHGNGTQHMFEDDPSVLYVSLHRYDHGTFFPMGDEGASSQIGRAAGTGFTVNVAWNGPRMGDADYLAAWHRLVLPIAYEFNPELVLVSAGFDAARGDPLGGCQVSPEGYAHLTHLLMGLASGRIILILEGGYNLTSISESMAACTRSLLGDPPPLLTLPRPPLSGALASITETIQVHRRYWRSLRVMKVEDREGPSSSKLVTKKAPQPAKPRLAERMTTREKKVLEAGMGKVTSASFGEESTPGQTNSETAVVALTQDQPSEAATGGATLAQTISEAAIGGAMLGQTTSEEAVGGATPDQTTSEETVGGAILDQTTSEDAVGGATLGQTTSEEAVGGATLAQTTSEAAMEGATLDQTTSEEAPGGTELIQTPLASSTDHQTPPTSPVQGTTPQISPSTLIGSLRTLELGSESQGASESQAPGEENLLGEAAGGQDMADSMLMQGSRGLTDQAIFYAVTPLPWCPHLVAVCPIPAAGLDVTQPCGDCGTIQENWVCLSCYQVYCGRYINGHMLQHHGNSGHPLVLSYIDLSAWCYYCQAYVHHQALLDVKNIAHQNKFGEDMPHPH
# Method: MM cells were cultured with Velcade and/or Tubacin; harvested; washed; and lysed using lysis buffer: 50 mM Tris-HCl (pH 7.4), 150 mM NaCl, 1% NP-40, 5 mM EDTA, 5 mM NaF, 2 mM Na3VO4, 1 mM PMSF, 5 μg/ml leupeptine, and 5 μg/ml aprotinin. Cell lysates were subjected to SDS-PAGE, transferred to PVDF membrane (Bio-Rad Laboratories, Hercules, Calif.), and immunoblotted with Abs against specific proteins.
# (§1) Cells cultured with tubacin and/or bortezomib were harvested; washed, and lysed using lysis buffer: 50 mM Tris-HCl (pH 7.4), 150 mM NaCl, 1% NP-40, 5 mM EDTA, 5 mM NaF, 1 mM Na3VO4, 1 mM PMSF, 5 μg/ml leupeptine, and 5 μg/ml aprotinin. Whole cell lysates were subjected to SDS-PAGE, transferred to nitrocellulose membrane (Bio-Rad Laboratories, Hercules, Calif.), and immunoblotted with specific Abs (31). Western blotting was done using anti-HDAC6, acetylated lysine, acetylated histone H3, acetylated histone H4, ubiquitin (Ub), phospho-SAPK (JNK), caspase-8 caspase-9, caspase-3, and PARP Abs (Cell Signaling, Beverly, Mass.); with anti-α-tubulin Ab (Santa Cruz Biotechnology, Santa Cruz, Calif.); as well as with anti-dynein Ab (Sigma, Saint Louis, Mo.). For immunoprecipitation, whole cell lysates were incubated with anti-Ub or dynein Abs overnight at 4° C., and then incubated with protein A/G PLUS-Agarose (Santa Cruz Biotechnology) for 2 h at 4° C., as in our prior study (31). Immunoprecipitates were then subjected to Western blotting for detection of HDAC6 and dynein.
# MM.1S and RPMI8226 cells = experiment: [3H]-thymidine uptake of MM cells adherent to BMSCs; format: cell-based, human
# Method: […] DNA synthesis was measured as described above.
# After treatment, DNA synthesis was measured by [^3H]-thymidine (Perkin Elmer, Boston Mass.) uptake, as previously described (44). All experiments were performed in quadruplicate.
# [1] = tested on: polyubiquitinated proteins; experiment: Western blotting with anti-Ub Ab; format: cell-based, human; conditions: tubacin alone
# Method: as §1
# [2] = tested on: MM.1S cells and RPMI cells; experiment: Inhibition of protein catabolism in myeloma cells; format: cell-based; conditions: FIG. 18
structure (smiles),measurement,setting,value
O=C(CCCCCCC(=O)Nc1ccc([C@H]2O[C@@H](CSc3nc(-c4ccccc4)c(-c4ccccc4)o3)C[C@@H](c3ccc(CO)cc3)O2)cc1)NO [tubacin],acetylation of α-tubulin,"HDAC6; MM cell lines (MM.1S, RPMI8226), tubacin up to 5 μM, 24 h",significantly induces aceylation of α-tubulin in a dose-dependent fashion; also recorded: causes tubulin hyperacetylation; also recorded: specifically induces acetylation of t-tubulin in a dose-dependent fashion; also recorded: specifically induces acetylation of α-tubulin
same,acetylation of tubulin in BMPCs,"HDAC6; tubacin 5 μM, 12 h, BMPCs of an MM patient",markedly enhanced
same,acetylation of tubulin in PBMCs,"HDAC6; tubacin 5 μM, 12 h, PBMCs of the same MM patient",but not in PBMCs
same,time of peak acetylation of α-tubulin,"HDAC6; tubacin 5 μM, RPMI8226 cells",12 h
same,expression of HDAC6,HDAC6; tubacin treatment (data not shown),not altered
same,"BMSC-induced [3H]-thymidine uptake / MM cell growth with BMSCs, single agent","MM.1S and RPMI8226 cells; MM cells adherent to BMSCs, 24 h",inhibits BMSC-induced [^3H]-thymidine uptake in a dose-dependent fashion; also recorded: significantly inhibits MM.1S cell growth even in the presence of BMSCs; also recorded: inhibits paracrine MM cell growth
same,effect of tubacin on bortezomib-induced inhibition of [3H]-thymidine uptake,"MM.1S and RPMI8226 cells; adherent MM.1S and RPMI8226 cells, tubacin with bortezomib",significantly enhances bortezomib-induced inhibition of [^3H]-thymidine uptake; also recorded: further augmented cytotoxicity of Velcade
same,polyubiquitinated proteins,[1]; MM.1S cells,no significant change
same,polyubiquitinated proteins,[1]; RPMI8226 cells,significantly accumulate; also recorded: increase in cellular ubiquitinated proteins
same,inhibition of protein catabolism,[2],potent inhibitors of protein catabolism

# — patent US10172905B1, “Treatment of protein degradation disorders” (President and Fellows of Harvard College, priority 2005, dated 2019)
